Counter-ions that a name gives are not always drawn. Like-named read-outs stand apart in the source and are kept apart here.
Biological target: T1, HIV-1 protease (Human immunodeficiency virus type 1 group M subtype B, UniProt P04585)
T1 construct: The protease (or proteinase), consisting of only 99 amino acids, is among the smallest enzymes known
Assay: In vitro HIV protease inhibitory assay (HIV Protease FITC Assay)
Assay type: biochemical
Conditions: for inhibition at 1 µM / inhibition at 10 µM / inhibition at 100 µM: read-out: HIV-1 Protease % Inhib
Procedure: The HIV protease screening assay is based on a fluorescently labeled substrate which can be resolved from nonlabeled cleavage product using avidin-polystyrene particles, 0.7-0.9 µm. The substrate is biotinylated at the amino terminal arginine and fluorescently labeled with fluorescein isothiocynate (FITC) at the carboxyl terminal lysine. […] Substrate (20 µl of 0.2 µM), sample (10 µl of desired concentraion), and enzyme (10 µl of 0.1 µM) are added to a 96 well pandex plate. The assay is run in 0.1 M sodium acetate buffer at pH 5.5 in the presence of 1.0 M sodium chloride and 0.05% NP-40 and incubated in the dark for one hour at room temperature. Avidin coated polystyrene beads {40 µl of 0.1% (w/v)} are added and the incubation is continued in the dark for an additional half hour. The labeled cleavage product is separated from the unreacted substrate via filtration and is read on the Idexx Screen Machine. The data are analyzed by appropriate computer algorithms to ascertain percent inhibition values.

Compound: 3-(.alpha.-ethylbenzyl)-4-hydroxy-6-(3-butenyl)-2H-Pyran-2-one [Example 10]
- IC50: 2900 nM
- HIV-1 Protease % Inhib (HIV-1 Dose 1.000 uM): 14.18%
- HIV-1 Protease % Inhib (HIV-1 Dose 10.000 uM): 82.75%
- HIV-1 Protease % Inhib (HIV-1 Dose 100.000 uM): 104.37%

Compound: 3-(.alpha.-ethylbenzyl)-4-hydroxy-6-propyl-2H-Pyran-2-one [Example 9]
- IC50: 19200 nM
- HIV-1 Protease % Inhib (HIV-1 Dose 1.000 uM): 16.27%
- HIV-1 Protease % Inhib (HIV-1 Dose 10.000 uM): 73.49%
- HIV-1 Protease % Inhib (HIV-1 Dose 100.000 uM): 98.35%

Compound: 3-(α-Cyclopropyl-meta-(tert-butyloxycarbonylamino)benzyl)-6-(α-cyclopropylmethyl-cyclopropylethyl)-4-hydroxy-2H-pyran-2-one [Example 38]
- HIV-1 Protease % Inhib (HIV-1 Dose 0.123 uM): <10%
- HIV-1 Protease % Inhib (HIV-1 Dose 0.370 uM): <10%
- HIV-1 Protease % Inhib (HIV-1 Dose 1.100 uM): <10%
- HIV-1 Protease % Inhib (HIV-1 Dose 3.300 uM): 26.72%
- HIV-1 Protease % Inhib (HIV-1 Dose 10.000 uM): 58.44%
- HIV-1 Protease % Inhib (HIV-1 Dose 30.000 uM): 69.94%

Compound: CCC(c1ccccc1)c1c(O)cc(-c2ccccc2)oc1=O (stereo not drawn) [Example 1, 3-(α-ethylbenzyl)-4-hydroxy-6-phenyl-2H-Pyran-2-one]
- inhibition at 1 µM (HIV-1 Dose 1.000 uM): < 10%
- inhibition at 10 µM (HIV-1 Dose 10.000 uM): 45.5%
- inhibition at 100 µM (HIV-1 Dose 100.000 uM): 80%

Compound: CCC(c1ccccc1)c1c(O)cc(Cc2ccccc2)oc1=O (stereo not drawn) [Example 2, 6-benzyl-3-(α-ethylbenzyl)-4-hydroxy-2H-Pyran-2-one]
- inhibition at 1 µM (HIV-1 Dose 1.000 uM): < 10%
- inhibition at 10 µM (HIV-1 Dose 10.000 uM): 38.7%
- inhibition at 100 µM (HIV-1 Dose 100.000 uM): 74.3%

Compound: CCCC(c1ccc(Br)cc1)c1c(O)cc(CCc2ccccc2)oc1=O (stereo not drawn) [Example 4, 4-hydroxy-6-phenethyl-3-(α-propyl-p-bromobenzyl)-2H-Pyran-2-one]
- inhibition at 1 µM (HIV-1 Dose 1.000 uM): < 10%
- inhibition at 10 µM (HIV-1 Dose 10.000 uM): 15.8%
- inhibition at 100 µM (HIV-1 Dose 100.000 uM): 51.2%

Compound: CCC(c1ccccc1)c1c(O)cc(CCc2ccc(Br)cc2)oc1=O (stereo not drawn) [Example 6, 6-(p-bromophenethyl)-3-(α-ethylbenzyl)-4-hydroxy-2H-Pyran-2-one]
- inhibition at 1 µM (HIV-1 Dose 1.000 uM): 15.6%
- inhibition at 10 µM (HIV-1 Dose 10.000 uM): 39.6%
- inhibition at 100 µM (HIV-1 Dose 100.000 uM): 69.7%

Compound: CCC(c1ccccc1)c1c(O)cc(CCc2ccccc2F)oc1=O (stereo not drawn) [Example 7, 3-(α-ethylbenzyl)-6-(o-fluorophenethyl)-4-hydroxy-2H-Pyran-2-one]
- IC50: 6400 nM
- inhibition at 1 µM (HIV-1 Dose 1.000 uM): 14%
- inhibition at 10 µM (HIV-1 Dose 10.000 uM): 74.1%
- HIV-1 Protease % Inhib (HIV-1 Dose 100.000 uM): 109%
- inhibition at 100 µM (HIV-1 Dose 100.000 uM): 109%

Compound: CCC(c1ccccc1)c1c(O)cc(CCCc2ccccc2)oc1=O (stereo not drawn) [Example 8, 3-(α-ethylbenzyl)-4-hydroxy-6-(3-phenylpropyl)-2H-Pyran-2-one]
- IC50: 3900 nM
- inhibition at 1 µM (HIV-1 Dose 1.000 uM): 15.8%
- inhibition at 10 µM (HIV-1 Dose 10.000 uM): 79%
- HIV-1 Protease % Inhib (HIV-1 Dose 100.000 uM): 97%
- inhibition at 100 µM (HIV-1 Dose 100.000 uM): 96.6%

Compound: CCC(c1ccccc1)c1c(O)cc(CC(=O)Nc2ccccc2)oc1=O (stereo not drawn) [Example 11, 3-(α-ethylbenzyl)-4-hydroxy-6-[[(phenylamino)carbonyl]methyl]-2H-Pyran-2-one]
- inhibition at 1 µM (HIV-1 Dose 1.000 uM): 10.8%
- inhibition at 10 µM (HIV-1 Dose 10.000 uM): 35.6%
- inhibition at 100 µM (HIV-1 Dose 100.000 uM): 79.8%

Compound: C=CC(c1ccccc1)c1c(O)cc(CCc2ccccc2)oc1=O (stereo not drawn) [Example 12, 4-hydroxy-6-phenethyl-3-(α-vinylbenzyl)-2H-Pyran-2-one]
- IC50: 5400 nM
- inhibition at 1 µM (HIV-1 Dose 1.000 uM): 17.5%
- inhibition at 10 µM (HIV-1 Dose 10.000 uM): 67.4%
- HIV-1 Protease % Inhib (HIV-1 Dose 100.000 uM): 107%
- inhibition at 100 µM (HIV-1 Dose 100.000 uM): 107%

Compound: CCC(CC)c1cc(O)c(C(CC)c2ccccc2)c(=O)o1 (stereo not shown) [Example 14, 6-(1'-Ethyl-propyl)-4-hydroxy-3-(1'-phenyl-propyl)-2-pyrone]
- IC50: 2200 nM
- inhibition at 1 µM (HIV-1 Dose 1.000 uM): 40.2%
- inhibition at 10 µM (HIV-1 Dose 10.000 uM): 90.2%
- inhibition at 100 µM (HIV-1 Dose 100.000 uM): 105%

Compound: CCC(c1ccccc1)c1c(O)cc(C=Cc2ccc(OC)cc2)oc1=O (stereo not drawn) [Example 15, 3-(α-ethylbenzyl)-4-hydroxy-6-(p-methoxystyryl)-2H-Pyran-2-one]
- IC50: 9700 nM
- inhibition at 1 µM (HIV-1 Dose 1.000 uM): 21.5%
- inhibition at 10 µM (HIV-1 Dose 10.000 uM): 84%
- inhibition at 100 µM (HIV-1 Dose 100.000 uM): 102%

Compound: CCC(c1ccccc1)c1c(O)cc(CCc2ccc3ccccc3c2)oc1=O (stereo not drawn) [Example 16, 3-(α-ethylbenzyl)-4-hydroxy-6-(2-naphth-2-ylethyl)-2H-Pyran-2-one]
- inhibition at 1 µM (HIV-1 Dose 1.000 uM): < 10%
- inhibition at 10 µM (HIV-1 Dose 10.000 uM): < 10%
- inhibition at 100 µM (HIV-1 Dose 100.000 uM): 49.9%

Compound: CCC(Cc1ccc2ccccc2c1)c1cc(O)c(C(CC)c2ccccc2)c(=O)o1 (stereo not drawn) [Example 17, 3-(α-ethylbenzyl)-4-hydroxy-6-(1-ethyl-2-naphth-2-ylethyl)-2H-Pyran-2-one]
- inhibition at 1 µM (HIV-1 Dose 1.000 uM): < 10%
- inhibition at 10 µM (HIV-1 Dose 10.000 uM): 49.5%
- inhibition at 100 µM (HIV-1 Dose 100.000 uM): 73.6%

Compound: CCC(c1ccccc1)c1c(O)cc(CCc2cccc3ccccc23)oc1=O (stereo not drawn) [Example 18, 3-(α-ethylbenzyl)-4-hydroxy-6-(2-naphth-1-ylethyl)-2H-Pyran-2-one]
- inhibition at 1 µM (HIV-1 Dose 1.000 uM): < 10%
- inhibition at 10 µM (HIV-1 Dose 10.000 uM): 42.1%
- inhibition at 100 µM (HIV-1 Dose 100.000 uM): 86.8%

Compound: CCC(Cc1cccc2ccccc12)c1cc(O)c(C(CC)c2ccccc2)c(=O)o1 (stereo not drawn) [Example 19, 3-(α-ethylbenzyl)-4-hydroxy-6-(1-ethyl-2-naphth-1-ylethyl)-2H-Pyran-2-one]
- inhibition at 1 µM (HIV-1 Dose 1.000 uM): 11%
- inhibition at 10 µM (HIV-1 Dose 10.000 uM): 79.3%
- inhibition at 100 µM (HIV-1 Dose 100.000 uM): 84.3%

Compound: Cc1cc(O)c(C(c2ccccc2)C2CC2)c(=O)o1 (stereo not drawn) [Example 20, 3-(α-cyclopropylbenzyl)-4-hydroxy-6-methyl-2H-Pyran-2-one]
- inhibition at 1 µM (HIV-1 Dose 1.000 uM): < 10%
- inhibition at 10 µM (HIV-1 Dose 10.000 uM): < 10%
- inhibition at 100 µM (HIV-1 Dose 100.000 uM): 60.6%

Compound: O=c1oc(CCCc2ccccc2)cc(O)c1C(c1ccccc1)C1CC1 (stereo not drawn) [Example 21, 3-(α-cyclopropylbenzyl)-4-hydroxy-6-(3-phenylpropyl)-2H-Pyran-2-one]
- IC50: 9600 nM
- inhibition at 1 µM (HIV-1 Dose 1.000 uM): 17.6%
- inhibition at 10 µM (HIV-1 Dose 10.000 uM): 83.7%
- inhibition at 100 µM (HIV-1 Dose 100.000 uM): 110%

Compound: CCC(CC)c1cc(O)c(C(c2ccccc2)C2CC2)c(=O)o1 (stereo not drawn) [Example 22, 3-(α-cyclopropylbenzyl)-6-(1-ethylpropyl)-4-hydroxy-2H-Pyran-2-one]
- IC50: 1800 nM
- inhibition at 1 µM (HIV-1 Dose 1.000 uM): 33.8%
- inhibition at 10 µM (HIV-1 Dose 10.000 uM): 98.3%
- inhibition at 100 µM (HIV-1 Dose 100.000 uM): 108%

Compound: O=c1oc(C(Cc2ccccc2)Cc2ccccc2)cc(O)c1C(c1ccccc1)C1CC1 (stereo not drawn) [Example 23, 3-(α-cyclopropylbenzyl)-6-(α-benzylphenethyl)-4-hydroxy-2H-Pyran-2-one]
- IC50: 3000 nM
- inhibition at 1 µM (HIV-1 Dose 1.000 uM): < 10%
- inhibition at 10 µM (HIV-1 Dose 10.000 uM): 77.9%
- inhibition at 100 µM (HIV-1 Dose 100.000 uM): 87%

Compound: O=c1oc(CCc2ccccc2)cc(O)c1C(c1ccccc1)C1CC1 (stereo not drawn) [Example 24, 3-(α-cyclopropylbenzyl)-4-hydroxy-6-phenethyl-2H-Pyran-2-one]
- IC50: 6300 nM
- inhibition at 1 µM (HIV-1 Dose 1.000 uM): < 10%
- inhibition at 10 µM (HIV-1 Dose 10.000 uM): 61.3%
- inhibition at 100 µM (HIV-1 Dose 100.000 uM): 105%

Compound: CCCC(CCC)c1cc(O)c(C(c2ccccc2)C2CC2)c(=O)o1 (stereo not drawn) [Example 25, 3-(α-cyclopropylbenzyl)-6-(1-propylbutyl)-4-hydroxy-2H-Pyran-2-one]
- Ki (read-out: HIV-1 FITC Ki): 41 nM

Compound: CCC(c1ccccc1)C1C(=O)CC(CC)(c2ccccc2)OC1=O (stereo not drawn) [Example 26, 6-Ethyl-3-(α-ethylbenzyl)-6-phenyl-tetrahydropyran-2,4-dione]
- Ki: 163 nM
- inhibition at 1 µM: 38.7%
- inhibition at 10 µM: 78.8%
- inhibition at 100 µM: 86.3%

Compound: CCC1(CC)CC(=O)C(CCCc2ccccc2)C(=O)O1 (stereo not shown) [Example 27, 6,6-Diethyl-3-(3-phenylpropyl)-tetrahydropyran-2,4-dione]
- inhibition at 1 µM (HIV-1 Dose 1.000 uM): 14.7%
- inhibition at 10 µM (HIV-1 Dose 10.000 uM): 41.4%
- inhibition at 100 µM (HIV-1 Dose 100.000 uM): 90.5%

Compound: CCCC1(c2ccccc2)CC(O)=C(C(CC)c2cccc(O)c2)C(=O)O1 (stereo not shown) [Example 30, 5,6-Dihydro-4-hydroxy-6-phenyl-6-propyl-3-[1-(3-hydroxyphenyl)-propyl]-2H-pyran-2-one]
- inhibition at 1 µM (HIV-1 Dose 1.000 uM): 46.4%
- inhibition at 10 µM (HIV-1 Dose 10.000 uM): 86%
- inhibition at 100 µM (HIV-1 Dose 100.000 uM): 75.7%

Compound: CCC(C1=C(O)CC(c2ccccc2)(C2CCCCC2)OC1=O)c1cccc(O)c1 (stereo not shown) [Example 31, 5,6-Dihydro-4-hydroxy-6-cyclohexyl-6-phenyl-3-[1-(3-hydroxyphenyl)propyl]-2H-pyran-2-one]
- Ki: 610 nM
- inhibition at 1 µM: 18.7%
- inhibition at 10 µM: 81%
- inhibition at 100 µM: 86%

Compound: CCCC1(c2ccccc2)CC(O)=C(C(CC)c2ccccc2)C(=O)O1 (stereo not shown) [Example 32, 5,6-Dihydro-4-hydroxy-6-phenyl-6-propyl-3-(1-phenylpropyl)-2H-pyran-2-one]
- Ki: 250 nM
- inhibition at 1 µM: 56.1%
- inhibition at 10 µM: 106%
- inhibition at 100 µM: 93.1%

Compound: CCC(C1=C(O)CC2(CCCCC2)OC1=O)c1ccccc1 (stereo not shown) [Example 33, 4-Hydroxy-1-oxa-3-(1-phenylpropyl)spiro-[5,5]-undec-3-en-2-one, sodium salt]
- inhibition at 1 µM: 10.2%
- inhibition at 10 µM: 68.5%
- inhibition at 100 µM: 80.7%

Compound: C=CC(c1ccccc1)C1C(=O)CC(C)(c2ccccc2)OC1=O (stereo not shown) [Example 34, Dihydro-6-methyl-6-phenyl-3-(1-phenyl-2-propenyl)-2H-Pyran-2,4(3H)-dione]
- inhibition at 1 µM (HIV-1 Dose 1.000 uM): < 10%
- inhibition at 10 µM (HIV-1 Dose 10.000 uM): 56.5%
- inhibition at 100 µM (HIV-1 Dose 100.000 uM): 67.9%
- Ki (read-out: HIV-1 FITC Ki): 625 nM

Compound: CCCC1(c2ccccc2)CC(=O)C(C(CC)c2cccc(O)c2)C(=O)O1 (stereo not shown) [Example 35, Dihydro-3-(1-(3-hydroxyphenyl)propyl]-6-phenyl-6-propyl-2H-pyran-2,4(3H)-dione]
- inhibition at 1 µM (HIV-1 Dose 1.000 uM): 23.8%
- inhibition at 10 µM (HIV-1 Dose 10.000 uM): 79.8%
- inhibition at 100 µM (HIV-1 Dose 100.000 uM): 73.6%

— EP1203770A1 (priority 1992, dated 1994)
